Measured values reported in paper PMC9818267, “Brain Natriuretic Peptide Protects Cardiomyocytes from Apoptosis and Stimulates Their Cell Cycle Re-Entry in Mouse Infarcted Hearts” (Cells, 2022).
Read-outs that look alike come from different tables or passages of the source. No end group written: not given here.

Assays:
cardiomyocytes (CMs) [1] = test: qRT-PCR on CMs isolated from treated hearts; format: in vivo, mouse; conditions: CMs from border area of infarcted hearts 10 days after surgery, BNP vs saline
Nkx2.5+ myocytes = conditions: cited from earlier work
cardiomyocytes (CMs) [2] = conditions: adult CMs from unmanipulated BNP-treated hearts vs saline, p = 0.008; cited from earlier work
Excerpt: The percentages of mononucleated CMs increased in all the BNP-treated hearts (Figure 2B,E,G).

ERK = test: Western blot pERK/ERK in adult CMs stimulated in vitro; format: cell-based, mouse; conditions: adult CMs stimulated with BNP for 2–3 h in vitro, vs untreated
Protocol: (§1) CM isolations were performed thanks to the Langendorff-Free method. […] Thereafter, the heart was removed from the chest and the left ventricle was perfused with enzymatic solution containing collagenase II (120 U/mL), collagenase IV (120 U/mL) (Worthington, Biochemical Corporation, USA) and protease XIV (0.05 mg/mL or 0.175 U/mL) (Sigma-Aldrich, Merck, Darmstadt, Germany). In each experiment, a full digestion of the heart was obtained. After digestion, cardiac cells were dissociated by gentle pipetting, filtered and collected after 25 min sedimentation. For infarcted hearts, the tissue was separated into the three zones (ZI, BZ and RZ). The three different areas were weighted before gentle pipetting.
(§2) Total proteins were extracted from CMs isolated from adult infarcted and unmanipulated neonatal and adult hearts. Proteins were transferred to nitrocellulose membranes (Biorad) before incubation with primary antibodies overnight at 4 °C. Secondary antibodies were added 1 h at RT in the dark (Supplementary File S1). The signal was detected and quantified with the Odyssey infrared imaging system (LI-COR. Biosciences, Bad Homburg, Germany). All results were normalized to the tubulin protein level or to the total protein level thanks to stainings with the Revert 700 Total protein Stain (LI-COR).

adult CMs = test: Adult CM culture 7 days with BNP; format: cell-based, mouse; conditions: 10 nM BNP, 7 days of culture
Protocol: as §1
qRT-PCR were performed using the SYBR Premix Ex Taq polymerase (Takara Bio Inc., Shiga, Japan) with the ViiA^TM7 Instrument (Applied Biosystems, Waltham, MA, USA). Total RNA was isolated from heart tissue, CM cell cultures and isolated CMs using TRI-Reagent (Zymo Research, Orange County, CA, USA). cDNA was synthesized from RNA using PrimeScript RT reagent kit (Takara Bio Inc.). Polymerase chain reactions (PCR) were performed using the SYBR Premix Ex Taq polymerase (Takara Bio Inc.) with the ViiA^TM7 Instrument (Applied Biosystems). Results were obtained after 40 cycles of a thermal step protocol consisting of an initial denaturation of 95 °C (1 s), followed by 60 °C (20 s) of elongation (α-skeletal actin has an elongation time of 30 s at 60 °C). The sequences of primers were reported in Supplementary File S2. All results were normalized with the 18S housekeeping gene (Δ CT values). Means of ΔΔ CT (Δ CTBNP–Δ CTsaline) values (versus untreated cells or NaCl treated mice) were calculated and results were represented as 2^−ΔΔCT. Statistics were performed on ΔΔ CT individual values. SEM fold increase was calculated using 2^−ΔΔ CT high values − 2^−means of ΔΔCT [13].

cardiomyocytes (CMs) [3] = test: Cardiomyocyte isolation (Langendorff-Free method) and counting; format: in vivo, mouse
Protocol: BNP was injected into infarcted adults, and unmanipulated neonatal and adult mice. Directly after surgery, NaCl (saline) or BNP (1.3 µg/20 g in 20 µL) was injected into the left ventricle cavity. At 24 h after MI, mice were intraperitoneal (ip) injected with BNP (2 µg/20 g mice) or saline every 2 days. C57BL/6 mice were sacrificed 1- and 14 days post-MI and Myh6 MerCreMer mice were sacrificed 14 days post-MI (Figure 1A). Neonatal C57BL/6 mice (3 days after birth) were injected ip with NaCl or BNP every two days (1 µg/2 g; Bachem; synthetic mouse BNP (1–45) peptide (catalog number H-7558)). Mice were sacrificed 11 days after birth (Figure 1B). Eight week old C57 BL/6 mice or Myh6 MerCreMer unmanipulated mice were injected ip with BNP (2 µg/20 g mice) or NaCl every two days (Figure 1C). Two weeks after the first injection, mice were sacrificed. To assess for the implication of the ERK signaling pathway in the BNP effect on CMs, PD0325901 (60 µg/20 g mice in 80 µL) was administered by gavage in adult unmanipulated mice 1 h before BNP injection (2 µg/20 g mice).
as §1
Total CM cell numbers were counted before sedimentation by two different people and in blinded experiments. The CMs were easily identified based on their size and on Troponin I expression (for all experiments with flow cytometry analysis). Round and rod-shaped CMs were counted and their numbers related to the heart, to the mg of tissue and also to the control hearts (saline-injected hearts) always performed in parallel the same day than BNP-treated hearts (i.e., with the same digestion buffer).

Akt = test: Western blot pAkt/Akt in adult CMs stimulated in vitro; format: cell-based, mouse; conditions: adult CMs stimulated with BNP for 2–3 h in vitro, vs untreated
Protocol: as §1, §2

caspase 3+ CMs = test: Immunostaining of caspase 3+ CMs in infarcted area; format: in vivo, mouse; conditions: infarcted area 1 day after MI, BNP vs saline
Protocol: Cells or OCT heart sections (5 µm-thick cryosections) were washed in PBS 1X and fixed in paraformaldehyde (2%) or formol (4%) for 10 min at RT. After 10 min of permeabilization (0.3% Triton x-100 in PBS) and one hour of blocking with normal serum, sections were probed with primary antibodies overnight at 4 °C (Supplementary File S1). The second day, the secondary antibody was added on cells or heart sections. Slides were mounted with Dabco (Sigma) and pictures were captured with Nikon Eclipse TS100 or 90i microscope. Images were processed with Adobe Photoshop CC2015.

cardiomyocytes (CMs) [4] = test: CM nucleation status and cross-sectional area; format: in vivo, mouse; conditions: vs saline
Protocol: After 25 min sedimentation, CMs were used for molecular analysis, Western blot analysis, flow cytometry analysis or fixed with 2.5% PFA 15 min at room temperature (RT) and stained with DAPI to evaluate the frequency of mono and bi-nucleated CMs.
CM area was assessed by α actinin and laminin stainings and image J software (1.53t version from the 24.08.2022, Mac OX X, Bethesda, MD, USA) for processing using CIF outliner cell Plugin. Only CMs with circularity >0.5 were considered.

## Brain Natriuretic Peptide (SQGSTLRVQQRPQNSKVTHISSCFGHKIDRIGSVSRLGCNALKLL; not fully specified; ends and bridges not checked; UniProt P40753 77-121, looked up) [BNP, synthetic mouse BNP (1–45) peptide (Bachem, catalog number H-7558)]
Cardiomyocytes (CMs) [1]
  myh7 mRNA level increase: 2.7 ×
Nkx2.5+ myocytes; adult BNP-treated hearts
  increase in Nkx2.5+ myocytes: 68%
Nkx2.5+ myocytes; neonatal BNP-treated hearts
  increase in Nkx2.5+ myocytes: 22.5%
Cardiomyocytes (CMs) [2]
  CM cross-sectional area change: −6%
ERK
  pERK/ERK ratio increase: 1.9 ×
Adult CMs
  Aurkb+ Troponin I+ CMs in culture: detected only in BNP-treated cell cultures
Adult CMs; vs untreated
  anf mRNA increase: 70%
  cyclin E1 mRNA increase: 56%
  dab2 mRNA increase: 52%
  runx1 mRNA increase: 62%
Cardiomyocytes (CMs) [3]; BZ and RZ of infarcted hearts, BNP vs saline
  CM number per mg tissue: No change
Cardiomyocytes (CMs) [3]; BZ or RZ of infarcted hearts, BNP vs saline
  CM cell number per heart: No increase
Cardiomyocytes (CMs) [3]; ZI of infarcted hearts, BNP vs saline
  increase of number of CMs per mg tissue: 2 fold
Cardiomyocytes (CMs) [3]; ZI of infarcted hearts, same-day isolation with same enzymatic cocktail
  increase of number of CMs related to saline-injected littermates: 2.2 fold
Cardiomyocytes (CMs) [3]; infarct area (ZI) of infarcted adult hearts, BNP 2 µg/20 g ip every 2 days, vs saline
  increase of total number of CMs per heart: 81%
Cardiomyocytes (CMs) [3]; unmanipulated adult NPR-A −/− mice, saline n = 4, BNP n = 3
  CM cell number in NPR-A deficient hearts: did not change
Cardiomyocytes (CMs) [3]; unmanipulated adult hearts
  increase of number of CMs related to saline-injected littermates: 28.5%
Cardiomyocytes (CMs) [3]; unmanipulated adult hearts, BNP 2 µg/20 g ip every 2 days for 2 weeks, vs saline
  increase of total number of CMs per heart: 19%
Cardiomyocytes (CMs) [3]; unmanipulated adult hearts, BNP vs saline
  increase of number of CMs per mg tissue: 26%
Cardiomyocytes (CMs) [3]; unmanipulated adult mice, PD0325901 (60 µg/20 g) 1 h before each BNP injection, 2 weeks, n = 5 per group
  number of CMs in the presence of ERK inhibitor: did not increase
Cardiomyocytes (CMs) [3]; unmanipulated neonatal hearts
  increase of number of CMs related to saline-injected littermates: 23%
Cardiomyocytes (CMs) [3]; unmanipulated neonatal hearts, BNP 1 µg/2 g ip every 2 days from day 3, sacrifice day 11, vs saline
  increase of total number of CMs per heart: 18%
Cardiomyocytes (CMs) [3]; unmanipulated neonatal hearts, BNP vs saline
  increase of number of CMs per mg tissue: 44%
Akt
  pAkt/Akt ratio increase: 2.5 ×
Caspase 3+ CMs
  number of caspase 3+ CMs change: −13%
Cardiomyocytes (CMs) [4]; all BNP-treated hearts (infarcted, neonatal, adult)
  percentages of mononucleated CMs: increased
Cardiomyocytes (CMs) [4]; all areas of BNP-treated infarcted hearts
  frequency of small CMs (cross-sectional area): significantly higher
